Article PMC9374667 (Communications Biology, 2022)
“And” between values parts separate entries of the source, which are not always exact repeats. Equal values may be shown once.

Legend:
db/db mice [1] = assay: Glucose tolerance test (GTT); type: in vivo; conditions: for blood glucose level, mean: BJ 150mg/kg, mean of 10 mice
[2] = In vitro dissolution studies: dynamic solubility in buffers and simulated biological fluids; type: physicochemical; conditions: CMC-Na, mean
Description: Solubilities were determined by adding excess sample to 30 mL different mediums, such as HCl solution, acetate buffer, phosphate buffer, SGF, FaSSIF and FeSSIF. The configuration of various buffer solutions is shown in Supplementary Table 2. After being shaken at 400 rpm at 37 °C for 0.5, 1, 2, and 24 h, 0.3 mL of suspension was sampled and centrifuged at 14,000 rpm for 8 min to isolate mother liquor, and then analyzed by HPLC after dilution. All samples were analyzed in triplicate.

db/db mice [3] = assay: Insulin tolerance test (ITT), AUC and initial slope; type: in vivo; conditions: for blood glucose level: individual mice, in mmol/L (unit assumed); for Initial Slope: individual animals (Figure S10a)
Description: (§1) Mice were fasted for 4 h for insulin resistance test and intraperitoneally injected with 1 unit/kg of insulin. Blood glucose levels were measured from the tail vein blood at 0, 15, 30, 45, 60, 90, and 120 min after injection. Plasma insulin levels were measured using an ultrasensitive mouse insulin ELISA kit (Nanjing Jiancheng Bioengineering Institute, Nanjing, China).

db/db mice [4] = assay: Fasting serum insulin levels (ELISA); type: in vivo; conditions: db/db mice; for insulin level (Figure 5b): fasting serum, individual mice 1-6; for Fasting serum insulin levels: 35 days of treatment, vs vehicle
Description: as §1

In the case of `CC(C)Cc1ccc(C(C)C(=O)[O-])cc1.COc1ccc2cc3[n+](cc2c1OC)CCc1cc2c(cc1-3)OCO2.O.O.O.O` [BJ, berberine-ibuprofen], the blood glucose level, mean (db/db mice [1]; time column 1 of 7 (time not printed)) is reported as 12.3 mmol/L, the blood glucose level, mean (db/db mice [1]; time column 2 of 7 (time not given)) is reported as 26.4 mmol/L and the blood glucose level, mean (db/db mice [1]; time column 3 of 7 (time not given)) is reported as 27.7 mmol/L. The blood glucose level, mean (db/db mice [1]; time column 4 of 7 (time not given)) was 24.1 mmol/L, the blood glucose level, mean (db/db mice [1]; time column 5 of 7 (time not given)) was 21.2 mmol/L and the blood glucose level, mean (db/db mice [1]; time column 6 of 7 (time not given)) was 18.4 mmol/L. For the same molecule, the blood glucose level, mean (db/db mice [1]; time column 7 of 7 (time not printed)) was 15.8 mmol/L, the “Glucose tolerance (GTT)” value (db/db mice [1]; db/db mice, 150 mg/kg, week 4) was “displayed better tolerance to glucose load” and the “BBR dissolved in CMC-Na (Figure S7a)” value ([2]; time 0.5) was 0.8321. The “Ibu dissolved in CMC-Na (Figure S7b)” value ([2]; time 0.5) was 0.4805, the “BBR dissolved in CMC-Na (Figure S7a)” value ([2]; time 1) was 1.458 and the “Ibu dissolved in CMC-Na (Figure S7b)” value ([2]; time 1) was 0.5844. The “BBR dissolved in CMC-Na (Figure S7a)” value ([2]; time 2) was 1.5642, the “Ibu dissolved in CMC-Na (Figure S7b)” value ([2]; time 2) was 0.6306 and the “BBR dissolved in CMC-Na (Figure S7a)” value ([2]; time 24) was 1.6671. For the same molecule, the “Ibu dissolved in CMC-Na (Figure S7b)” value ([2]; time 24) was 0.6693, the blood glucose level (db/db mice [3]; BJ 75mg/kg, time column 1 of 7 (time not printed)) was 18.5 and 19.1 and 12.0 and 14.2 and 11.0 and 11.7 and 16.7 and 19.2 and 21.8 and 15.9 and the blood glucose level (db/db mice [3]; BJ 75mg/kg, time column 2 of 7 (time not given)) was 19.2 and 21.2 and 12.1 and 14.6 and 8.3 and 11.4 and 18.6 and 22.2 and 23.5 and 18.5. For the same molecule, the blood glucose level (db/db mice [3]; BJ 75mg/kg, time column 3 of 7 (time not given)) was 18.3 and 19.0 and 10.1 and 10.5 and 8.8 and 7.5 and 13.7 and 19.3 and 20.1 and 11.6, the blood glucose level (db/db mice [3]; BJ 75mg/kg, time column 4 of 7 (time not given)) was 13.0 and 15.2 and 7.6 and 10.0 and 6.8 and 7.5 and 12.1 and 16.3 and 20.8 and 11.0 and the blood glucose level (db/db mice [3]; BJ 75mg/kg, time column 5 of 7 (time not given)) was 12.4 and 16.1 and 8.4 and 8.8 and 5.9 and 7.1 and 11.2 and 16.2 and 16.3 and 10.1. The blood glucose level (db/db mice [3]; BJ 75mg/kg, time column 6 of 7 (time not given)) was 10.2 and 13.2 and 6.9 and 8.2 and 5.3 and 6.4 and 9.7 and 13.6 and 14.6 and 9.4, the blood glucose level (db/db mice [3]; BJ 75mg/kg, time column 7 of 7 (time not printed)) was 12.1 and 12.2 and 9.0 and 9.8 and 4.9 and 5.5 and 10.8 and 12.3 and 14.9 and 10.0 and the blood glucose level (db/db mice [3]; BJ 150mg/kg, time column 1 of 7 (time not printed)) was 18.0 and 17.8 and 9.3 and 14.4 and 11.4. The blood glucose level (db/db mice [3]; BJ 150mg/kg, time column 2 of 7 (time not given)) was 13.2 and 15.0 and 7.7 and 11.7 and 11.6, the blood glucose level (db/db mice [3]; BJ 150mg/kg, time column 3 of 7 (time not given)) was 7.7 and 7.0 and 1.7 and 6.1 and the blood glucose level (db/db mice [3]; BJ 150mg/kg, time column 4 of 7 (time not given)) was 7.2 and 6.7 and 1.5 and 6.3. For the same molecule, the blood glucose level (db/db mice [3]; BJ 150mg/kg, time column 5 of 7 (time not given)) was 9.0 and 8.2 and 3.3 and 5.2, the blood glucose level (db/db mice [3]; BJ 150mg/kg, time column 6 of 7 (time not given)) was 8.2 and 7.6 and 2.8 and 7.0 and the blood glucose level (db/db mice [3]; BJ 150mg/kg, time column 7 of 7 (time not printed)) was 10.4 and 7.7 and 4.0 and 7.3. For the same molecule, the “Insulin sensitivity (ITT)” value (db/db mice [3]; db/db mice, 150 mg/kg, week 5) was “more sensitive to insulin stimulation”, the “Initial Slope” value (db/db mice [3]; db/db mice, BJ 75mg/kg) was -0.0733 mmol/L/min and -0.14 mmol/L/min and -0.1 mmol/L/min and 0.0033 mmol/L/min and -0.0567 mmol/L/min and -0.1433 mmol/L/min and -0.0067 mmol/L/min and -0.0033 mmol/L/min and -0.0633 mmol/L/min and -0.1233 mmol/L/min and the “Initial Slope” value (db/db mice [3]; db/db mice, BJ 150mg/kg) was -0.1767 mmol/L/min and -0.22 mmol/L/min and -0.15 mmol/L/min and -0.28 mmol/L/min and -0.3433 mmol/L/min and -0.36 mmol/L/min and -0.2533 mmol/L/min and -0.2467 mmol/L/min. The “insulin level (Figure 5b)” value (db/db mice [4]; BJ 75mg/kg) was 10.1686 and 14.5706 and 11.3611 and 13.6498 and 12.9045 and 14.3689, the “insulin level (Figure 5b)” value (db/db mice [4]; BJ 150mg/kg) was 10.5413 and 10.778 and 14.6188 and 12.4266 and 11.7294 and 13.6718 and the “Fasting serum insulin levels” value (db/db mice [4]; 75 mg/kg) was “did not produce significant effects”. For the same molecule, the “Fasting serum insulin levels” value (db/db mice [4]; 150 mg/kg) was “significantly reduced the fasting serum insulin levels”.
